Source: article PMC6305398, “Red Fluorescent Chlamydia trachomatis Applied to Live Cell Imaging and Screening for Antibacterial Agents” (Frontiers in Microbiology, 2018)
Entries after “also recorded” stand apart in the source; their conditions may differ. Like-named read-outs stand apart in the source and are kept apart here.

How the values were obtained:
HeLa cells = assay: in vitro; assay type: cell-based; settings: non-toxic = viability not below 70% of vehicle control at 25 μM
Protocol: (§1) HeLa299 cells were inoculated into clear, flat 96-well plates (Nunc, Delta surface, Thermo Fischer Scientific) with a density of 7,000 cells per well and cultured overnight at 37°C with 5% CO2 in […] supplemented with 10% FBS and 2 mM L-glutamine. The following day, the RPMI was replaced with DMEM without phenol red (Life Technologies, Carlsbad, CA, USA) containing 0.5% DMSO with or without test compounds at 25 and 50 μM concentrations incubated at 37°C with 5% CO2 for 48 h. At least three replicate wells for each compound concentration were tested. Wells without cells were used as blank controls. Following this incubation with compounds, cells were washed with DMEM to remove remaining colored compounds and fresh DMEM without phenol red was added before the XTT Cell Proliferation Assay kit was used according to the manufacturer's instructions (ATCC, Manassas, VA, USA). Briefly, activation reagent and XTT reagent were thawed at 37°C, then mixed in a 1:50 ratio with enough volume to add 50 μL to each well. The plates were placed in the 37°C incubator for 2.5 h. The absorbance of each well was then read at 475 nm and 660 nm with a Tecan Infinite m200 plate reader (Tecan, Männedorf, Switzerland). To analyze the data, the 660 nm reading was subtracted from the 475 nm reading to help eliminate non-specific readings from the assay results. Average blank control-well readings were subtracted from those containing cells. Final readings from wells containing compound were compared to DMSO control wells and expressed as percent of control.

in vitro = assay type: cell-based; settings: human, 48 h, percent of DMSO control; for viability at 25 µM: read-out: HeLa cell viability at 25 μM (%); for viability at 50 µM: read-out: HeLa cell viability at 50 μM (%) (converted)
Protocol: as §1

[1] = system: mCherry expressing C. trachomatis serovar L2 454/Bu; assay: Primary screen of natural compound library, Chlamydia inclusion count (mCherry imaging and FITC immunostaining in duplicate plates); assay type: cell-based, Chlamydia trachomatis; settings: Chlamydia trachomatis, 10 μM, 48 hpi, HeLa cells, vs DMSO control
Protocol: A general and more detailed protocol for the screening assay is provided in (Supplementary Data Sheet 1) and an overview of the screening method is given in Figure 3. Since inhalation of C. trachomatis aerosols can cause laboratory acquired infections (Sewell, [1995]), all procedures involving handling of live infection in open plates were performed manually inside a class II safety cabinet using 8-channel electronic pipets (Rainin E4 XLS, Mettler Toledo, Barcelona, Spain) and an enclosed aspiration system (Intergra VacuSafe, Zizers, Switzerland).
The primary screen of the 349 open access compound library was performed using the mCherry expressing C. trachomatis serovar L2 454/Bu in clear, flat 96-well plates (Nunc, Delta surface, Thermo Fischer Scientific). The primary screen was done in duplicates in separated plates; one plate was used for mCherry imaging and the other for FITC immunostaining. Cells were seeded at a density of 10,000 cells per well in 100 μl DMEM media 1 day prior to infection in culture media. Chlamydia infection was performed in 30 μl HBSS as described above with a MOI of 0.6 during 1 h at 37°C, 5% CO2. Compounds were diluted to 10 μM in DMEM with a final DMSO concentration of 0.5% and 100 μl per well was added after aspiration of HBSS. The plates were incubated for an additional 47 h at 37°C, 5% CO2 prior to imaging. One of the duplicate plates was used for mCherry imaging and one for FITC immunostaining. For mCherry imaging, HeLa cell nuclei were first stained by addition of 10 μl […] Hoechst per well and incubated at 37°C with 5% CO2 for 20 min. The infected cells were fixed in 4% paraformaldehyde (PFA) for 15 min and washed in PBS before image acquisition. Although fixation was not necessary for the analysis, it inactivated the infectious Chlamydia and enabled later analysis after storage at 4°C. For FITC immunostaining, cells were fixed in 150 μl methanol per well for 10 min, blocked in 1% BSA, 0.25% Tween-20 in PBS and incubated with 1:1,000 polyclonal rabbit anti-chlamydial serum in blocking buffer (Marwaha et al., [2014]). A FITC-conjugated donkey anti-rabbit antibody (Jackson ImmunoResearch) and 1 μg/ml Hoechst staining was used for staining followed by washing with blocking buffer. Images of nuclei (Hoechst-ex386/23 nm) and Chlamydia inclusions (FITC: ex485/20 nm; mCherry: ex549/15 nm) were acquired in the ArrayScan with the 10x objective and counted with the built in software. Chlamydia inclusions in DMSO control wells were used to determine an inclusion size cutoff to exclude small underdeveloped inclusions as well as fluorescent artifacts from the analyses.

wt C. trachomatis [2] = assay: EC50 determination, large inclusion count in infected HeLa cells, FITC immunostaining; assay type: cell-based, Chlamydia trachomatis; settings: wt strain, 44-48 h; for EC50: Chlamydia trachomatis, read-out: EC50 (95% confidence values)
Protocol: (§2) HeLa cells were inoculated into 96-well plates (Nunc, Corning, New York, USA) with a density of 15,000 cells per well and cultured overnight at 37°C with 5% CO2 in RPMI 1640, supplemented with 10% FBS and 2 mM L-glutamine, and infected the following day with wt or mCherry C. trachomatis in HBSS. At 1 hpi, the inoculum was replaced with RPMI media containing 0.5% DMSO and serial 1:2 dilutions of the tested compounds. The infection was allowed to proceed for 44–48 h before fixation by aspiration of the media and adding methanol for 5 min. Chlamydia inclusions were immunostained as described above. The numbers of large inclusions were counted by the ArrayScan VTI HCS automated scanner. Inhibition of Chlamydia growth was evaluated as the number of inclusions in compound treated infections (evaluated in 12 fields per well, 20x objective) compared to the numbers of inclusions in DMSO treated control infections (% of control). EC50 values are representative of at least three independent experiments. The data analysis was performed using non-linear regression (curve fit) in GraphPad Prism v.5.

wt C. trachomatis [3] = assay: Doxycycline susceptibility, large inclusion count after immunostaining; assay type: cell-based; settings: Chlamydia trachomatis; wt strain, HeLa cells, 48 h, FITC immunostaining; read-out: EC50 with 95% confidence interval
[4] = system: mCherry expressing C. trachomatis; assay: Doxycycline susceptibility, large inclusion count by live mCherry imaging; assay type: cell-based; settings: Chlamydia trachomatis, HeLa, 48 h, read-out: EC50 with 95% confidence interval
Protocol: HeLa 299 cells, cultured to 70% confluence were harvested and seeded into 96-well plates (clear, flat, Nunclon Delta coated, Nunc, Thermo Fischer Scientific, Waltham, MA, USA) at a density of 10,000 per well in culture media (DMEM or RPMI 1640 supplemented with 10% FBS, 2 mM L-glutamine and 50 μg/ml gentamicin). After overnight incubation in 37°C with 5% CO2, adherent cells were infected with 30 μl mCherry expressing Chlamydia per well in HBSS with a multiplicity of infection (MOI) of 0.6. Chlamydia were incubated with the cells for 1 h at 37°C with 5% CO2 after which HBSS was removed and replaced with 100 μl culture media. DNA of host cell nuclei and Chlamydia inclusions were visualized by addition of 10 μl 10 μg/ml Hoechst 20 min prior to imaging. Live images were acquired 48 hpi in an automated HCS microscope (ArrayScan VTI, Thermo Fischer Scientific) using the 10x objective, excitation 549/15 nm for mCherry and excitation 386/23 nm for Hoechst. The number of large Chlamydia inclusions was enumerated using the built in software. An inclusion size cutoff was determined based on the 48 hpi Chlamydia inclusions to include normally developed Chlamydia inclusions and exclude fluorescent artifacts from the analyses. […] Large inclusions were counted by Arrayscan and EC50 values determined using GraphPad Prism v.5 (GraphPad software, La Jolla, CA, USA) with non-linear regression.

mammalian cells = settings: ref Davis et al., 2013; cited from earlier work
[5] = ref Davis et al., 2013; cited from earlier work
[6] = system: mCherry expressing C. trachomatis; assay: EC50 determination, large inclusion count in infected HeLa cells, FITC immunostaining; assay type: cell-based; settings: Chlamydia trachomatis, read-out: EC50 (95% confidence values)
Protocol: as §2

[7] = system: mCherry transformed C. trachomatis; assay: Live real time imaging of C. trachomatis infection (time-lapse 24-72 hpi); assay type: cell-based, Chlamydia trachomatis; settings: HeLa cells
Protocol: The anti-chlamydial effect over time of compound 6 (identified in the above screen) was visualized by a time-lapse experiment. HeLa cells were seeded at a concentration of 10,000 cells per well 1 day prior to infection. Chlamydia infection was performed as described above at MOI 0.6 with mCherry transformed C. trachomatis. Phenol red free DMEM culture media containing 6 or 3 μM 6 or 0.5% DMSO was added at 100 μl per well 1 hpi. Images were acquired with 1 h intervals with the 10x objective acquiring 4 fields per well during 48 h. The red channel was used for autofocusing and therefore imaging was initialized 24 hpi when the mCherry expressing inclusions were detectable, continuing to 72 hpi.

[8] = MOI 0.6, FITC immunostaining, read-out: Screen inhibition at 10 μM (%) FITC
[9] = MOI 0.6, mCherry detection, read-out: Screen inhibition at 10 μM (%) mCherry

## C[C@]1(O)Cc2c(O)c3c(c(O)c2[C@@H](O)C1)C(=O)C=C(NCCN1CCOCC1)C3=O [Compound 4]
HeLa cells
  Toxicity to HeLa cells (authors' call): non-toxic
In vitro
  viability at 25 µM: ≥ 70%
  viability at 50 µM: 74%
[1]; [8]
  inhibition at 10 µM: 100%
[1]; [9]
  inhibition at 10 µM: 98%
Wt C. trachomatis [2]
  EC50: 20800 nM

## C[C@H]1c2cccc(O)c2C(=O)C2=C(O)[C@]3(O)C(=O)C(C(N)=O)=C(O)[C@@H](N(C)C)[C@@H]3[C@@H](O)[C@@H]21 [doxycycline]
Wt C. trachomatis [3]
  EC50: 54.4 nM
[4]
  EC50: 32.8 nM

## NCCc1c[nH]c2c1C(=O)C1=C(NCCS1(=O)=O)C2=O [Compound 6]
Mammalian cells
  Toxicity in mammalian cells: non-toxic
HeLa cells
  Toxicity to HeLa cells (authors' call): non-toxic
In vitro
  viability at 25 µM: 77 ± 0.2%
  viability at 50 µM: 55%
[1]; [8]
  inhibition at 10 µM: 100%
[1]; [9]
  inhibition at 10 µM: 100%
[5]
  In vitro antimalarial effect, active concentrations: low nanomolar concentrations
[6]
  EC50: 1700 nM
[7]; 3 μM, compared to DMSO control
  Growth of red fluorescent Chlamydia inclusions in live imaging: grew at a slower pace; also recorded: continuous growth reduction
[7]; 6 μM
  Red fluorescent Chlamydia inclusions in live imaging: not detectable
Wt C. trachomatis [2]
  EC50: 2800 nM

## CC(C)(C)NC(=O)NCCc1c[nH]c2c1C(=O)C1=C(NC=CS1(=O)=O)C2=O [Compound 8]
HeLa cells
  Toxicity to HeLa cells (authors' call): toxic
In vitro
  viability at 25 µM: 30 ± 7%
  viability at 50 µM: 11%
[1]; [8]
  inhibition at 10 µM: 100%
[1]; [9]
  inhibition at 10 µM: 100%

## C[C@]1(O)Cc2c(O)c3c(c(O)c2[C@@H](O)C1)C(=O)C=C(NCCc1ccc(O)cc1)C3=O [Compound 3]
HeLa cells
  Toxicity to HeLa cells (authors' call): toxic
In vitro
  viability at 25 µM: 41 ± 2.5%
  viability at 50 µM: 24%
[1]; [8]
  inhibition at 10 µM: 100%

## CC(=O)NCCc1c[nH]c2c1C(=O)C1=C(NC=CS1(=O)=O)C2=O [Compound 7]
HeLa cells
  Toxicity to HeLa cells (authors' call): toxic
In vitro
  viability at 25 µM: 17 ± 2%
  viability at 50 µM: 6%
[1]; [8]
  inhibition at 10 µM: 100%
[1]; [9]
  inhibition at 10 µM: 99%

## C[C@]1(O)Cc2c(O)c3c(c(O)c2[C@@H](O)C1)C(=O)C=C(NCCc1ccccc1)C3=O [Compound 2]
HeLa cells
  Toxicity to HeLa cells (authors' call): non-toxic
In vitro
  viability at 25 µM: ≥ 70%
  viability at 50 µM: 31%
[1]; [8]
  inhibition at 10 µM: 100%
[1]; [9]
  inhibition at 10 µM: 66%
Wt C. trachomatis [2]
  EC50: 23000 nM

## COCCNC1=CC(=O)c2c(O)c3c(c(O)c2C1=O)C[C@](C)(O)C[C@@H]3O [Compound 1]
HeLa cells
  Toxicity to HeLa cells (authors' call): non-toxic
In vitro
  viability at 50 µM: 58.5%
[1]; [8]
  inhibition at 10 µM: 100%
[1]; [9]
  inhibition at 10 µM: 100%
[6]
  EC50: 2800 nM
Wt C. trachomatis [2]
  EC50: 5300 nM
  EC50 (95% confidence values): low micromolar

## CCCCNC(=O)NCCc1c[nH]c2c1C(=O)C1=C(NC=CS1(=O)=O)C2=O [Compound 9]
HeLa cells
  Toxicity to HeLa cells (authors' call): toxic
In vitro
  viability at 25 µM: 37 ± 6.5%
  viability at 50 µM: 11.5%
[1]; [8]
  inhibition at 10 µM: 100%
[1]; [9]
  inhibition at 10 µM: 100%
